According to patent US20130040882A1, “USE OF FIBROBLAST GROWTH FACTOR FRAGMENTS” (NOVARTIS AG, priority 2003, published 2013):

Tested on: uterine gene expression
Assay: Gene expression profiling (HGU133A) in the uterus of ovariectomized monkeys treated with estradiol, tamoxifen or raloxifene
Format: in vivo, cynomolgus monkeys (Macaca fascicularis)

For `O=C(c1ccc(OCCN2CCCCC2)cc1)c1c(-c2ccc(O)cc2)sc2cc(O)ccc12` [raloxifene], the “Uterine expression increase: insulin-like GF binding protein 2 and insulin-like GF 1” value (compared with OVX controls) was “approximately 2 fold”, the “Effect on transporter, redox, and cell cycle genes in the uterus (relative to estradiol)” value (cynomolgus monkey, in vivo) was “little or no effect” and the “Uterine expression changes: IGFBP 5, latent TGF beta binding protein 1, cysteine-rich angiogenic inducer 61” value (cynomolgus monkey, in vivo) was “only modest changes”. For the same compound, the “Uterine expression of the remaining signal transduction genes examined” value (tamoxifen: except for LDL receptor adaptor protein) was “downregulated”, the “Fold change relative to OVX: ATPase, H+ transporting, lysosomal 38 kda, V0 subunit d isoform 1” value (uterus, OVX monkeys) was 1.1 fold and the “Fold change relative to OVX: ATPase, Na+/K+ transporting, beta 3 polypeptide” value (uterus, OVX monkeys) was 0.9 fold. For the same compound, the “Fold change relative to OVX: Biglycan” value (uterus, OVX monkeys) was 2.4 fold, the “Fold change relative to OVX: CDC28 protein kinase regulatory subunit 2” value (uterus, OVX monkeys) was 0.8 fold and the “Fold change relative to OVX: Cadherin 11, type 2, OB-cadherin (osteoblast)” value (uterus, OVX monkeys) was 1.3 fold. For the same compound, the “Fold change relative to OVX: Calcium channel, voltage-dependent, beta 2 subunit” value (uterus, OVX monkeys) was 0.8 fold, the “Fold change relative to OVX: Catenin (cadherin-associated protein), alpha-like 1” value (uterus, OVX monkeys) was 0.8 fold and the “Fold change relative to OVX: Chitinase 3-like 1 (cartilage glycoprotein-39)” value (uterus, OVX monkeys) was 1.1 fold. The “Fold change relative to OVX: Chloride intracellular channel 4” value (uterus, OVX monkeys) was 1.4 fold, the “Fold change relative to OVX: Chondroitin sulfate proteoglycan 2 (versican)” value (uterus, OVX monkeys) was 1.4 fold and the “Fold change relative to OVX: Collagen, type I, alpha 1” value (uterus, OVX monkeys) was 1.8 fold. For the same compound, the “Fold change relative to OVX: Collagen, type IV, alpha 2” value (uterus, OVX monkeys) was 1.4 fold, the “Fold change relative to OVX: Collagen, type V, alpha 1” value (uterus, OVX monkeys) was 1.2 fold and the “Fold change relative to OVX: Collagen, type VI, alpha 3” value (uterus, OVX monkeys) was 1.2 fold. The “Fold change relative to OVX: Collagen, type VIII, alpha 2” value (uterus, OVX monkeys) was 1.9 fold, the “Fold change relative to OVX: Cyclin D1 (PRAD1: parathyroid adenomatosis 1)” value (uterus, OVX monkeys) was 1.2 fold and the “Fold change relative to OVX: Cysteine-rich, angiogenic inducer, 61” value (uterus, OVX monkeys) was 1.7 fold. The “Fold change relative to OVX: Cytochrome c oxidase subunit via polypeptide 1” value (uterus, OVX monkeys) was 1.0 fold, the “Fold change relative to OVX: Cytochrome c oxidase subunit viia polypeptide 2 (liver)” value (uterus, OVX monkeys) was 1.1 fold and the “Fold change relative to OVX: Dermatopontin” value (uterus, OVX monkeys) was 1.5 fold. The “Fold change relative to OVX: Dishevelled associated activator of morphogenesis 1” value (uterus, OVX monkeys) was 0.9 fold, the “Fold change relative to OVX: Fibroblast growth factor 2 (basic)” value (uterus, OVX monkeys) was 2.0 fold and the “Fold change relative to OVX: Fibulin 1” value (uterus, OVX monkeys) was 1.4 fold. The “Fold change relative to OVX: Four and a half LIM domains 2” value (uterus, OVX monkeys) was 0.9 fold, the “Fold change relative to OVX: G1 to S phase transition 1” value (uterus, OVX monkeys) was 0.9 fold and the “Fold change relative to OVX: Growth associated protein 43” value (uterus, OVX monkeys) was 1.7 fold. For the same compound, the “Fold change relative to OVX: H2A histone family, member Y” value (uterus, OVX monkeys) was 1.0 fold, the “Fold change relative to OVX: Heparan sulfate proteoglycan 2 (perlecan)” value (uterus, OVX monkeys) was 1.2 fold and the “Fold change relative to OVX: Histone H2A.F/Z variant” value (uterus, OVX monkeys) was 1.0 fold. The “Fold change relative to OVX: Insulin-like growth factor binding protein 2, 36 kda” value (uterus, OVX monkeys) was 1.1 fold, the “Fold change relative to OVX: Insulin-like growth factor binding protein 5” value (uterus, OVX monkeys) was 2.0 fold and the “Fold change relative to OVX: Integrin, beta 5” value (uterus, OVX monkeys) was 1.5 fold. For the same compound, the “Fold change relative to OVX: Intercrine-alpha, mrna sequence” value (uterus, OVX monkeys) was 1.3 fold, the “Fold change relative to OVX: LDL receptor adaptor protein” value (uterus, OVX monkeys) was 1.0 fold and the “Fold change relative to OVX: LIM and senescent cell antigen-like domains 1” value (uterus, OVX monkeys) was 2.2 fold. For the same compound, the “Fold change relative to OVX: Laminin, beta 1” value (uterus, OVX monkeys) was 1.1 fold, the “Fold change relative to OVX: Latent transforming growth factor beta binding protein 1” value (uterus, OVX monkeys) was 1.8 fold and the “Fold change relative to OVX: Matrix metalloproteinase 19” value (uterus, OVX monkeys) was 0.9 fold. The “Fold change relative to OVX: Mitogen-activated protein kinase kinase kinase kinase 4” value (uterus, OVX monkeys) was 0.8 fold, the “Fold change relative to OVX: Nidogen (enactin)” value (uterus, OVX monkeys) was 2.4 fold and the “Fold change relative to OVX: Osteoglycin (osteoinductive factor, mimecan)” value (uterus, OVX monkeys) was 1.6 fold. For the same compound, the “Fold change relative to OVX: Peroxiredoxin 1” value (uterus, OVX monkeys) was 1.0 fold, the “Fold change relative to OVX: Phosphatase and tensin homolog (mutated in multiple advanced cancers 1)” value (uterus, OVX monkeys) was 1.1 fold and the “Fold change relative to OVX: Phospholipid transfer protein” value (uterus, OVX monkeys) was 1.2 fold. For the same compound, the “Fold change relative to OVX: Pituitary tumour-transforming 1 interacting protein” value (uterus, OVX monkeys) was 1.5 fold, the “Fold change relative to OVX: Procollagen C-endopeptidase enhancer” value (uterus, OVX monkeys) was 1.7 fold and the “Fold change relative to OVX: Procollagen-proline, 2-oxoglutarate 4-dioxygenase (proline 4-hydroxylase), alpha polypeptide II” value (uterus, OVX monkeys) was 1.2 fold. For the same compound, the “Fold change relative to OVX: Progesterone receptor” value (uterus, OVX monkeys) was 1.9 fold, the “Fold change relative to OVX: Protein tyrosine kinase 9” value (uterus, OVX monkeys) was 1.2 fold and the “Fold change relative to OVX: SET domain, bifurcated 1” value (uterus, OVX monkeys) was 1.1 fold. The “Fold change relative to OVX: SPARC-like 1 (mast9, hevin)” value (uterus, OVX monkeys) was 1.7 fold, the “Fold change relative to OVX: Secreted frizzled-related protein 1” value (uterus, OVX monkeys) was 1.6 fold and the “Fold change relative to OVX: Secreted frizzled-related protein 4” value (uterus, OVX monkeys) was 0.8 fold. For the same compound, the “Fold change relative to OVX: Secreted protein, acidic, cysteine-rich (osteonectin)” value (uterus, OVX monkeys) was 1.7 fold, the “Fold change relative to OVX: Serine (or cysteine) proteinase inhibitor, clade H (heat shock protein 47), member 1, (collagen binding protein 1)” value (uterus, OVX monkeys) was 1.4 fold and the “Fold change relative to OVX: Solute carrier family 22 (organic cation transporter), member 1-like” value (uterus, OVX monkeys) was 1.0 fold. For the same compound, the “Fold change relative to OVX: Solute carrier family 25 (mitochondrial carrier; adenine nucleotide translocator), member 5” value (uterus, OVX monkeys) was 1.1 fold, the “Fold change relative to OVX: Stem cell growth factor; lymphocyte secreted C-type lectin” value (uterus, OVX monkeys) was 1.2 fold and the “Fold change relative to OVX: Tenascin C (hexabrachion)” value (uterus, OVX monkeys) was 1.0 fold. For the same compound, the “Fold change relative to OVX: Testis Enhanced Gene Transcript (Bax Inhibitor 1)” value (uterus, OVX monkeys) was 1.1 fold, the “Fold change relative to OVX: Thioredoxin interacting protein” value (uterus, OVX monkeys) was 1.0 fold and the “Fold change relative to OVX: Transforming growth factor, beta-induced, 68 kda” value (uterus, OVX monkeys) was 1.7 fold. For the same compound, the “Fold change relative to OVX: Ubiquinol-cytochrome c reductase, Rieske iron-sulfur polypeptide 1” value (uterus, OVX monkeys) was 1.0 fold, the “Fold change relative to OVX: Wingless-type MMTV integration site family, member 2B” value (uterus, OVX monkeys) was 1.4 fold and the “Fold change relative to OVX: Wingless-type MMTV integration site family, member 16” value (uterus, OVX monkeys) was 0.9 fold. The “Fold change relative to SHAM control: ATPase, H+ transporting, lysosomal 38 kda, V0 subunit d isoform 1” value (uterus, OVX monkeys) was 1.0 fold, the “Fold change relative to SHAM control: ATPase, Na+/K+ transporting, beta 3 polypeptide” value (uterus, OVX monkeys) was 0.5 fold and the “Fold change relative to SHAM control: Biglycan” value (uterus, OVX monkeys) was 0.9 fold. For the same compound, the “Fold change relative to SHAM control: CDC28 protein kinase regulatory subunit 2” value (uterus, OVX monkeys) was 0.5 fold, the “Fold change relative to SHAM control: Chitinase 3-like 1 (cartilage glycoprotein-39)” value (uterus, OVX monkeys) was 0.8 fold and the “Fold change relative to SHAM control: Chloride intracellular channel 4” value (uterus, OVX monkeys) was 0.7 fold. The “Fold change relative to SHAM control: Chondroitin sulfate proteoglycan 2 (versican)” value (uterus, OVX monkeys) was 1.0 fold, the “Fold change relative to SHAM control: Collagen, type I, alpha 1” value (uterus, OVX monkeys) was 0.7 fold and the “Fold change relative to SHAM control: Collagen, type IV, alpha 2” value (uterus, OVX monkeys) was 0.8 fold. The “Fold change relative to SHAM control: Collagen, type V, alpha 1” value (uterus, OVX monkeys) was 0.6 fold, the “Fold change relative to SHAM control: Collagen, type VI, alpha 3” value (uterus, OVX monkeys) was 0.7 fold and the “Fold change relative to SHAM control: Collagen, type VIII, alpha 2” value (uterus, OVX monkeys) was 1.1 fold. The “Fold change relative to SHAM control: Cyclin D1 (PRAD1: parathyroid adenomatosis 1)” value (uterus, OVX monkeys) was 1.3 fold, the “Fold change relative to SHAM control: Cysteine-rich, angiogenic inducer, 61” value (uterus, OVX monkeys) was 0.9 fold and the “Fold change relative to SHAM control: Cytochrome c oxidase subunit via polypeptide 1” value (uterus, OVX monkeys) was 0.8 fold. The “Fold change relative to SHAM control: Cytochrome c oxidase subunit viia polypeptide 2 (liver)” value (uterus, OVX monkeys) was 1.1 fold, the “Fold change relative to SHAM control: Dermatopontin” value (uterus, OVX monkeys) was 0.8 fold and the “Fold change relative to SHAM control: Fibroblast growth factor 2 (basic)” value (uterus, OVX monkeys) was 1.0 fold.
